Test system: human endothelial cells
Assay: Fenofibrate time-course microarray in human endothelial cells, GO Term Finder clusters of selected genes
Settings: 25 μM fenofibrate, 18 hours microarray

`CC(C)OC(=O)C(C)(C)Oc1ccc(C(=O)c2ccc(Cl)cc2)cc1` [fenofibrate] was tested, and the “# genes in GO annotation: cellular lipid metabolism (GO:0044255)” value (overexpressed genes) was 21, the “# genes in GO annotation: cholesterol biosynthesis (GO:0006695)” value (overexpressed genes) was 5 and the “# genes in GO annotation: cholesterol metabolism (GO:0008203)” value (overexpressed genes) was 7. For the same compound, the “# genes in GO annotation: lipid metabolism (GO:0006629)” value (overexpressed genes) was 25, the “# genes in GO annotation: steroid biosynthesis (GO:0006694)” value (overexpressed genes) was 7 and the “# genes in GO annotation: steroid metabolism (GO:0008202)” value (overexpressed genes) was 10. The “# genes in GO annotation: sterol biosynthesis (GO:0016126)” value (overexpressed genes) was 6, the “# genes in GO annotation: sterol metabolism (GO:0016125)” value (overexpressed genes) was 8 and the “# genes in GO annotation: M phase (GO:0000279)” value (suppressed genes) was 17. The “# genes in GO annotation: M phase of mitotic cell cycle (GO:0000087)” value (suppressed genes) was 15, the “# genes in GO annotation: RNA splicing, via transesterification reactions (GO:0000375)” value (suppressed genes) was 9 and the “# genes in GO annotation: RNA splicing, via transesterification reactions with bulged adenosine as nucleophile (GO:0000377)” value (suppressed genes) was 9. The “# genes in GO annotation: cell cycle (GO:0007049)” value (suppressed genes) was 35, the “# genes in GO annotation: mRNA metabolism (GO:0016071)” value (suppressed genes) was 13 and the “# genes in GO annotation: mitosis (GO:0007067)” value (suppressed genes) was 15. The “# genes in GO annotation: mitotic cell cycle (GO:0000278)” value (suppressed genes) was 19, the “# genes in GO annotation: nuclear mRNA splicing, via spliceosome (GO:0000398)” value (suppressed genes) was 9 and the “# genes in GO annotation: regulation of cell cycle (GO:0000074)” value (suppressed genes) was 22.

Source: US20080220977A1, “Computational strategy for discovering druggable gene networks from genome-wide RNA expression profiles” (GNI Ltd., priority 2005, published 2008)
